This note sets out measurements from PubChem BioAssay (NCI).

What all share (experiment): NCI anticancer screen, dose series, 48 h
Test [1] deals with A498 renal.
Test [2] deals with A549 NSCLC.
In test [3] the test system is ACHN renal.
Test [4] relates to MDA-MB-435.
Test [5] deals with NCI-H226 lung.
Test [6] has as its system NCI-H23 lung.
For test [7], the system named is OVCAR-3 ovarian.
Test [8] concerns SF-539 CNS.
Test [9] has as its system SK-MEL-28 melanoma.
In test [10] the test system is TK-10 renal.

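In this assay, cells in 96-well plates receive the compound at five concentrations for 48 hours. Endpoints are linearly interpolated between the surrounding concentrations. GI50 = concentration required for 50% inhibition of growth. TGI is the concentration that stops growth completely.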 Bounds are passed on as bounds.

Consider `CS(=O)(=O)OCC1OC(n2ccc(NC(=O)c3ccccc3)nc2=O)CC1OS(C)(=O)=O` (stereo unspecified), for which the TGI in [1], in test [2], in [3], in test [4], in test [5] and in test [6] was above 100 µM throughout. Also, the TGI in test [7], in test [8], in test [9] and in test [10] was above 100 µM in each case.

Consider `CCCCCCc1cc2cc(-c3nc4ccccc4[nH]3)c(=Nc3ccccc3C)oc2cc1O`, for which the GI50 was 4.02 µM in [1]; 2.44 µM in [2]; 2.04 µM in test [3]; 2.16 µM in test [4]; 2.55 µM in test [5]; 2.46 µM in test [6]. The GI50 in test [7] was 1.77 µM; in test [8] it was 1.83 µM; in test [9], 1.88 µM; in test [10], 2.27 µM. Further, the TGI in test [1] turned out to be 16.8 µM; in test [2], 6.29 µM; in [3] it was 5.24 µM; in test [4], 5.05 µM; in test [5] it was 10.3 µM; in test [6], 5.87 µM. Also, the TGI is 3.28 µM in [7], 3.75 µM in test [8], 3.73 µM in test [9] and 4.48 µM in [10].

On to `CCN1/C(=C/C=C/c2n(-c3ccccc3)c3ccc(-c4nc5ccccc5s4)cc3[n+]2CC)N(c2ccccc2)c2ccc(-c3nc4ccccc4s3)cc21`, for which the GI50 in test [1] was 0.246 µM; in [2], 0.284 µM; in [3], 0.622 µM; in [4], 1.35 µM; in test [5], 0.317 µM; in test [6], 0.533 µM. For the same compound, the GI50 in test [7] was 1.01 µM; in [8], 0.854 µM; in test [9], 0.488 µM; in test [10] it was 1.94 µM. In addition, the TGI in test [1] was 2.39 µM; in test [2] it was above 26.1 µM; in test [3], above 50 µM; in [4] it was above 50 µM; in test [5], 15.6 µM; in test [6], 5.08 µM. In addition, the TGI in [7] is 10.3 µM; in test [8] it was 5.75 µM; in test [9], 5.82 µM; in test [10] it was above 50 µM.

Consider `Nc1ccccc1-c1ccc([N+](=O)[O-])cc1`, for which the GI50 in test [1] was 29 µM; in test [2] it was 4.65 µM; in test [3], 4.99 µM; in test [4], 5.01 µM; in test [5], 33.6 µM; in [6], 26.6 µM. Besides, the GI50 in test [7] was 13.4 µM; in test [8], 3.92 µM; in test [9] it was 83.5 µM; in [10] it was 25.9 µM. The TGI in test [1], in test [2], in [3], in [4], in test [5] and in test [6] was above 100 µM in each case. The TGI is 76.9 µM in test [7], 63 µM in test [8], above 100 µM in test [9] and above 100 µM in test [10].

For the compound `Fc1ccc(-c2nn3c(-c4ccc(F)c(Cl)c4)nnc3s2)cc1`, the GI50 in test [1] was above 50 µM; in test [2] it was 21.2 µM; in [3], 29.1 µM; in test [4] it was above 50 µM; in test [5], above 50 µM; in test [6] it was above 50 µM. The GI50 was above 50 µM in [7], above 50 µM in [8], above 50 µM in [9] and 14.2 µM in test [10]. Also, the TGI in [1], in test [2], in [3], in [4], in test [5] and in [6] was above 50 µM each time. Moreover, the TGI in [7], in test [8], in test [9] and in test [10] was above 50 µM each time.

Take `CCC1C(=O)OCc2c1cc1n(c2=O)Cc2cc3ccccc3nc2-1` (stereo unspecified): the TGI in [1] is 49 µM; in [2], above 100 µM; in [3] it was above 100 µM; in test [4], above 100 µM; in test [5] it was above 100 µM; in [6], 10.6 µM. Moreover, the TGI in [7] is above 100 µM; in test [8], 5.67 µM; in [9], above 100 µM; in [10], above 100 µM.

`CCOc1ccccc1NC(=O)c1cc2ccccc2cc1O`: the GI50 in test [1] is 2.16 µM; in test [2], 3.19 µM; in test [3], 2.96 µM; in [4] it was 2.38 µM; in test [5], 2.81 µM; in test [6], 2.59 µM. Besides, the GI50 was 3.16 µM in test [7], 3.05 µM in test [8], 4.91 µM in [9] and 4.08 µM in test [10]. Besides, the TGI in [1] is 5.55 µM; in test [2], 11.6 µM; in test [3], 10.3 µM; in test [4], 7.08 µM; in test [5], 10.8 µM; in [6] it was 9.45 µM. Also, the TGI in [7] was found to be 8.98 µM; in [8], 15.8 µM; in test [9] it was 20.2 µM; in [10] it was 10.3 µM.

`CC(C)Nc1ccc(Nc2ccccc2)cc1`: the GI50 is 9.69 µM in test [1]; 26.2 µM in test [2]; 3.31 µM in test [3]; 15.4 µM in [4]; 19.9 µM in test [5]; 14.2 µM in [6]. Besides, the GI50 is 9.49 µM in [7], 5.34 µM in test [8], 28.1 µM in test [9] and 23.1 µM in test [10]. In addition, the TGI was above 100 µM in [1]; above 100 µM in test [2]; 15 µM in test [3]; 46 µM in test [4]; 69.3 µM in test [5]; 65.3 µM in test [6]. In addition, the TGI turned out to be 21.8 µM in test [7], 38.6 µM in test [8], 95.1 µM in test [9] and 57.4 µM in test [10].

With `N=C(N)c1ccc(OCCOCCOc2ccc(C(=N)N)cc2)cc1`, the GI50 in test [1] was 63.7 µM; in [2], 40.1 µM; in [3], above 100 µM; in test [4], 84.8 µM; in test [5] it was above 100 µM; in test [6], 78 µM. In addition, the GI50 in test [7] is above 100 µM; in test [8], 35.3 µM; in test [9], 77 µM; in test [10], 39.2 µM. For the same compound, the TGI in [1], in [2], in test [3], in [4], in test [5] and in test [6] was above 100 µM each time. In addition, the TGI in test [7], in [8], in test [9] and in test [10] was above 100 µM in each case.

As for `CCCCCc1nc2c(c3c1CCCC3)CCCC2`, the GI50 in test [1] was 3.28 µM; in test [2], 11.9 µM; in [3] it was 11.5 µM; in test [4], 14.4 µM; in [5], 9.57 µM; in [6] it was 5.06 µM. Besides, the GI50 was 4.7 µM in test [7], 17.4 µM in test [8], 14.8 µM in test [9] and 8.44 µM in test [10]. Also, the TGI in test [1] was 19.6 µM; in test [2] it was 64 µM; in test [3], 30.5 µM; in test [4] it was 38.7 µM; in [5], 25.6 µM; in test [6] it was 25.6 µM. Further, the TGI is 17.8 µM in test [7], 36.2 µM in test [8], 36.2 µM in [9] and 22.4 µM in test [10].

On to `Nc1ncnc2c1ncn2Cc1ccc(C23CC4CC(CC(C4)C2)C3)c(OCc2cc(F)c(F)cc2F)c1`, for which the GI50 in [1] was above 100 µM; in [2], 3.61 µM; in test [3] it was 5.74 µM; in [4], 5.22 µM; in test [5] it was above 100 µM; in test [7], 3.27 µM. Moreover, the GI50 in test [8] was 50.2 µM; in [9] it was above 100 µM; in [10], 4.37 µM. Besides, the TGI is above 100 µM in test [1]; 14.7 µM in [2]; above 100 µM in [3]; above 100 µM in test [4]; above 100 µM in test [5]; above 100 µM in test [7]. The TGI in [8], in test [9] and in test [10] was above 100 µM each time.

`CCOC(=O)c1sc2ncn(Cc3cccc(Br)c3)c(=O)c2c1C`: the GI50 in test [1] is 18.2 µM; in [2], 56.2 µM; in test [3], 84.6 µM; in [4], 54.1 µM; in test [5], 19.8 µM; in test [6], 66.7 µM. Also, the GI50 in test [7] is 39.7 µM; in [8] it was 84.5 µM; in test [9], 71.6 µM. Moreover, the TGI in test [1] was 80.1 µM; in test [2], above 100 µM; in test [3] it was above 100 µM; in test [4], above 100 µM; in test [5], 85 µM; in test [6] it was above 100 µM. Also, the TGI in test [7], in test [8] and in test [9] was above 100 µM in each case.
